Results published in patent US20100056516A1 (priority 2006, published 2010).
Like-named read-outs stand apart in the source and are kept apart here.

Tests used:
HXB2 virus = assay: microbe, parasite or virus in culture; type: cell-based, HIV
Summary of the method: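 Single-cycle infectivity assay in HeLa P4-2 cells measuring inhibition of acute HIV infection, using HXB2 virus.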

HIV integrase = HIV integrase (Human immunodeficiency virus type 1 group M subtype B, UniProt P04585); assay: integrase strand transfer assay (STA); type: biochemical
[1] = biological target: HIV-1 reverse transcriptase (RNase H) (Human immunodeficiency virus type 1 group M subtype B, UniProt P04585); assay: ASH assay: RNase H mediated RNA cleavage (ECL format, BioVeris M384); type: biochemical
Protocol: Potency of a substance as an RNase H inhibitors can be determined by measuring its ability prevent RNase H catalyzed cleavage of the RNA strand in a RNA/DNA hybrid duplex substrate. RNase H activity is measured using a substrate generated by annealing the oligoribo-nucleotide 5′-rCrCrUrCrUrCrArArArArArCrArGrGrArGrCrArGrArArArGrArCrArArG (SEQ ID NO:1) to the oligodeoxyribonucleotide 5′-Biotin-[…] (SEQ ID NO:2). […] (SEQ ID NO:3). The resulting double-stranded duplex DNA product is quantitated in an ALPHA screen format using [streptavidin- and anti-fluorescein-coated beads (Packard Bioscience) following the manufacturer's guidelines and reading on a Fusion AlphaScreen instrument. Alternatively, the released 5′-Biotinylated DNA is annealed to a complementary oligodeoxyribonucleotide: 5′-ruthenium-[…] (SEQ ID NO:3). The resulting double-stranded duplex DNA product is quantitated in an ECL screen format using Dynabeads M280 coated with streptavidin (BioVeris Corporation) following the manufacturer's guidelines and reading on a BioVeris M384 Analyzer.

HeLa P4-2 cell line = tested on: HeLa P4-2 cell line
From the text: The HeLa P4-2 cell line used in the single cycle HIV infectivity Assay B of Example 270 was also used to determine compound cytotoxicity in the absence of viral infection.

[2] = Human immunodeficiency virus 1, HXB2, HeLaP4-2, read-out: SCIA-B (IC50, μM)
[3] = Human immunodeficiency virus 1, HXB2, HeLaP4-2, read-out: antiviral IC50 (SCIA-B)
[4] = IC50 in the STA assay, integrase strand transfer
[5] = STA (IC50, μM), integrase strand-transfer assay, Example 269
[6] = cytotoxicity test B, Alamar Blue, HeLa P4-2 cells, no virus, tested up to 100 micromolar
[7] = integrase strand transfer, read-out: IC50 in the STA assay
[8] = integrase strand-transfer assay, Example 269, read-out: STA (IC50)
[9] = RNase H mediated RNA cleavage assay, Example 269, read-out: ASH (IC50)

CCOC(=O)c1c(O)c2c(-c3ccccc3)ccnc2n(O)c1=O [Example 4, Ethyl 1,4-dihydroxy-2-oxo-5-phenyl-1,2-dihydro-1,8-naphthylidine-3-carboxylate]
IC50 (HXB2 virus; [2]): 0.53 µM
IC50 (HXB2 virus; [3]): < 100 µM
IC50 (HIV integrase; [4]): < 50 µM
IC50 (HIV integrase; [5]): 0.24 µM
IC50 [1]: 260 nM
Cytotoxicity (LD50, μM) (HeLa P4-2 cell line; human): 50 µM

O=C(NC1CCN(Cc2ccccc2)CC1)c1c(O)c2cccnc2n(O)c1=O.O=C(O)C(F)(F)F [Example 21, N-(1-Benzylpiperidin-4-yl)-1,4-dihydroxy-2-oxo-1,2-dihydro-1,8-naphthyridine-3-carboxamide, trifluoro-acetic acid salt]
IC50 (HXB2 virus; [2]): 0.47 µM
IC50 (HXB2 virus; [3]): < 100 µM
IC50 (HIV integrase; [4]): < 50 µM
IC50 (HIV integrase; [5]): 0.25 µM
IC50 [1]: 180 nM
Cytotoxicity (LD50, μM) (HeLa P4-2 cell line; [6]): >100 µM

CNC(=O)c1c(O)c2cccnc2n(O)c1=O [Example 24, 1,4-Dihydroxy-N-methyl-2-oxo-1,2-dihydro-1,8-naphthyridine-3-carboxamide]
IC50 (HXB2 virus; [2]): 0.22 µM
IC50 (HXB2 virus; [3]): < 100 µM
IC50 (HIV integrase; [4]): < 50 µM
IC50 (HIV integrase; [5]): 0.55 µM
IC50 [1]: 180 nM
Cytotoxicity (LD50, μM) (HeLa P4-2 cell line; human): >100 µM

O=c1c(-c2ccccn2)c(O)c2cccnc2n1O [Example 27, 1,4-Dihydroxy-3-pyridin-2-yl-1,8-naphthyridin-2(1B)-one]
IC50 (HXB2 virus; [2]): 0.5 µM
IC50 (HXB2 virus; [3]): < 100 µM
IC50 (HIV integrase; [4]): < 50 µM
IC50 (HIV integrase; [5]): 0.06 µM
IC50 [1]: 100 nM
Cytotoxicity (LD50, μM) (HeLa P4-2 cell line; human): 6.2 µM

O=c1c(-c2cccc(C(F)(F)F)c2)c(O)c2cccnc2n1O [Example 28, 1,4-Dihydroxy-3-[3-(trifluoromethyl)phenyl]-1,8-naphthyridin-2(1H)-one]
IC50 (HXB2 virus; [2]): 0.22 µM
IC50 (HXB2 virus; [3]): < 100 µM
IC50 (HIV integrase; [7]): < 50 µM
IC50 (HIV integrase; [8]): 0.26 µM
IC50 [1, 9]: 120 nM
Cytotoxicity (LD50, μM) (HeLa P4-2 cell line; human): >100 µM

O=c1c(-c2cccc(Cl)c2)c(O)c2cccnc2n1O [Example 33, 3-(3-Chlorophenyl)-1,4-dihydroxy-1,8-naphthyridin-2(1H)-one]
IC50 (HXB2 virus; [2]): 0.66 µM
IC50 (HXB2 virus; [3]): < 100 µM
IC50 (HIV integrase; [7]): < 50 µM
IC50 (HIV integrase; [8]): 0.18 µM
IC50 [1, 9]: 47 nM
Cytotoxicity (LD50, μM) (HeLa P4-2 cell line; human): >100 µM

COc1cccc(-c2c(O)c3cccnc3n(O)c2=O)c1 [Example 40, 1,4-Dihydroxy-3-(3-methoxyphenyl)-1,8-naphthyridin-2(1H)-one]
IC50 (HXB2 virus; [2]): 0.67 µM
IC50 (HXB2 virus; [3]): < 100 µM
IC50 (HIV integrase; [7]): < 50 µM
IC50 (HIV integrase; [8]): 0.62 µM
IC50 [1, 9]: 110 nM
Cytotoxicity (LD50, μM) (HeLa P4-2 cell line; human): >100 µM

O=c1c(-c2ccccc2)c(O)c2cc(F)cnc2n1O [Example 48, 6-Fluoro-1,4-dihydroxy-3-phenyl-1,8-naphthyridin-2(1H)-one]
IC50 (HXB2 virus; [2]): 0.14 µM
IC50 (HXB2 virus; [3]): < 100 µM
IC50 (HIV integrase; [7]): < 50 µM
IC50 (HIV integrase; [8]): 0.023 µM
IC50 [1, 9]: 200 nM
Cytotoxicity (LD50, μM) (HeLa P4-2 cell line; human): 31 µM

CCOC(=O)c1c(O)c2cc(-c3cccc(CN4CCOCC4)c3)cnc2n(O)c1=O [Example 57, Ethyl 1,4-dihydroxy-6-[3-(morpholin-4-ylmethyl)phenyl]-2-oxo-1,2-dihydro-1,8-naphthyridine-3-carboxylate]
IC50 (HXB2 virus; [2]): 0.1 µM
IC50 (HXB2 virus; [3]): < 100 µM
IC50 (HIV integrase; [7]): < 50 µM
IC50 (HIV integrase; [8]): 0.069 µM
IC50 [1, 9]: 520 nM
Cytotoxicity (LD50, μM) (HeLa P4-2 cell line; human): 36 µM

CCOC(=O)c1c(O)c2cc(-c3cccc(O)c3)cnc2n(O)c1=O [Example 59, Ethyl 1,4-dihydroxy-6-(3-hydroxyphenyl)-2-oxo-1,2-dihydro-1,8-naphthyridine-3-carboxylate]
IC50 (HXB2 virus; [2]): 0.05 µM
IC50 (HXB2 virus; [3]): < 100 µM
IC50 (HIV integrase; [7]): < 50 µM
IC50 (HIV integrase; [8]): 0.022 µM
IC50 [1, 9]: 150 nM
Cytotoxicity (LD50, μM) (HeLa P4-2 cell line; human): 20 µM

O=c1c(Cc2ccccc2)c(O)c2cc(Cc3ccccc3)cnc2n1O [Example 66, 3,6-Dibenzyl-l,4-dihydroxy-1,8-naphthyridin-2(1H)-one]
IC50 (HXB2 virus; [2]): 0.38 µM
IC50 (HXB2 virus; [3]): < 100 µM
IC50 (HIV integrase; [7]): < 50 µM
IC50 (HIV integrase; [8]): 0.02 µM
IC50 [1, 9]: 490 nM
Cytotoxicity (LD50, μM) (HeLa P4-2 cell line; human): 34 µM

CCOC(=O)c1c(O)c2cc(C(=O)N(C)CCc3ccccc3)cnc2n(O)c1=O [Example 81, Ethyl 1,4-dihydroxy-6-{[methyl(2-phenylethyl)amino]carbonyl}-2-oxo-1,2-dihydro-1,8-naphthyridine-3-carboxylate]
IC50 (HXB2 virus; [2]): 0.06 µM
IC50 (HXB2 virus; [3]): < 100 µM
IC50 (HIV integrase; [7]): < 50 µM
IC50 (HIV integrase; [8]): 0.027 µM
IC50 [1, 9]: 270 nM
Cytotoxicity (LD50, μM) (HeLa P4-2 cell line; human): >100 µM

O=c1cc(Nc2ccc(-c3ccccc3)cc2)c2cccnc2n1O [Example 106, 4-(Biphenyl-4-ylamino)-1-hydroxy-1,8-naphthyridin-2(1H)-one]
IC50 (HXB2 virus; [2]): 0.43 µM
IC50 (HXB2 virus; [3]): < 100 µM
IC50 (HIV integrase; [4]): < 50 µM
IC50 (HIV integrase; [5]): 0.22 µM
IC50 [1]: 88 nM
Cytotoxicity (LD50, μM) (HeLa P4-2 cell line; human): 12 µM

O=c1cc(NCc2ccc(CN3CCOCC3)cc2)c2cccnc2n1O [Example 111, 1-Hydroxy-4-{[4-(morpholin-4-ylmethyl)benzyl]amino}-1,8-naphthyridin-2(1H)-one]
IC50 (HXB2 virus; [2]): 0.12 µM
IC50 (HXB2 virus; [3]): < 100 µM
IC50 (HIV integrase; [4]): < 50 µM
IC50 (HIV integrase; [5]): 1.8 µM
IC50 [1]: 46 nM
Cytotoxicity (LD50, μM) (HeLa P4-2 cell line; human): >100 µM

O=c1cc(NCc2cccc(N3CCOCC3)n2)c2cccnc2n1O [Example 115, 1-hydroxy-4-{[(6-morpholin-4-ylpyridin-2-yl)methyl]amino}-1,8-naphthyridin-2(1H)-one]
IC50 (HXB2 virus; [2]): 0.11 µM
IC50 (HXB2 virus; [3]): < 100 µM
IC50 (HIV integrase; [4]): < 50 µM
IC50 (HIV integrase; [5]): 1.9 µM
IC50 [1]: 180 nM
Cytotoxicity (LD50, μM) (HeLa P4-2 cell line; human): 8.6 µM

COC(=O)c1ccc2c(c1)CCN(c1cc(=O)n(O)c3ncccc13)C2 [Example 121, 4-[6-(methoxycarbonyl)-3,4-dihydroisoquinolin-2(1H)-yl]-1-hydroxy-1,8-naphthyridin-2(1H)-one]
IC50 (HXB2 virus; [2]): 0.26 µM
IC50 (HXB2 virus; [3]): < 100 µM
IC50 (HIV integrase; [4]): < 50 µM
IC50 (HIV integrase; [5]): 0.6 µM
IC50 [1]: 150 nM
Cytotoxicity (LD50, μM) (HeLa P4-2 cell line; human): 16 µM

O=c1cc(N2CCc3ncccc3C2)c2cccnc2n1O [Example 123, 4-(7,8-dihydro-1,6-naphthyridin-6(5H)-yl)-1-hydroxy-1,8-naphthyridin-2(1H)-one]
IC50 (HXB2 virus; [2]): 0.42 µM
IC50 (HXB2 virus; [3]): < 100 µM
IC50 (HIV integrase; [7]): < 50 µM
IC50 (HIV integrase; [8]): 2.4 µM
IC50 [1, 9]: 110 nM
Cytotoxicity (LD50, μM) (HeLa P4-2 cell line; [6]): 8.7 µM

C[C@H](Nc1cc(=O)n(O)c2ncccc12)c1ccccc1 [Example 124, 1-hydroxy-4-{[(1S)-1-phenylethyl]amino}-1,8-naphthyridin-2(1H)-one]
IC50 (HXB2 virus; [2]): 0.16 µM
IC50 (HXB2 virus; [3]): < 100 µM
IC50 (HIV integrase; [4]): < 50 µM
IC50 (HIV integrase; [5]): 0.66 µM
IC50 [1]: 230 nM
Cytotoxicity (LD50, μM) (HeLa P4-2 cell line; human): 50 µM

O=c1cc(NC2CCc3ccccc32)c2cccnc2n1O (stereo not drawn) [Example 134, 4-(2,3-dihydro-1H-inden-1-ylamino)-1-hydroxy-1,8-naphthyridin-2(1H)-one]
IC50 (HXB2 virus; [2]): 0.034 µM
IC50 (HXB2 virus; [3]): < 100 µM
IC50 (HIV integrase; [4]): < 50 µM
IC50 (HIV integrase; [5]): 0.36 µM
IC50 [1]: 91 nM
Cytotoxicity (LD50, μM) (HeLa P4-2 cell line; human): 23 µM

O=c1cc(NC2CCCc3ccccc32)c2cccnc2n1O (stereo not drawn) [Example 135, 1-hydroxy-4-(1,2,3,4-tetrahydronaphthalen-1-ylamino)-1,8-naphthyridin-2(1H)-one]
IC50 (HXB2 virus; [2]): 0.5 µM
IC50 (HXB2 virus; [3]): < 100 µM
IC50 (HIV integrase; [4]): < 50 µM
IC50 (HIV integrase; [5]): 0.19 µM
IC50 [1]: 61 nM
Cytotoxicity (LD50, μM) (HeLa P4-2 cell line; human): >100 µM
